Data reported in article PMC10870044, “The Interplay Between HIF‐1α and EZH2 in Lung Cancer and Dual‐Targeted Drug Therapy” (Advanced Science, 2023).

Legend:
[1] = test system: A549/DR and H460/DR cells; assay: CCK-8 cytotoxicity, resistance ratio in dual drug-resistant cells; assay type: cell-based, Human; conditions: A549/DR and H460/DR vs parental
Procedure: Cells (4 × 10^3per well) were seeded into a 96‐well plate and cultured at 37°C in a 5% CO2 incubator. After 24 h, different concentrations of 2‐ME2 were put into wells which ranged from 0.01 to 100 µM with a minimum of three technical replicates. After 72 h, 10 µl CCK‐8 (MCE, NY, USA) was added to each well and incubated for an additional 4 h at 37°C in a 5% CO2 incubator. Then, […]. The optical density values were measured at 450 nm using a microplate reader (Molecular Devices, San Jose, CA, USA).

[2] = test system: A549/DR cells; assay: Annexin V-FITC/PI apoptosis assay; assay type: cell-based, Human; conditions: 48 h exposure
Procedure: (§1) After incubation for 48 h, cells were harvested by centrifugation and washed twice in PBS. Then stained the cells according to the FITC Annexin V Apoptosis Detection Kit II (BD Biosciences, USA). Control cells stained with Annexin‐V or PI alone were used to compensate for flow cytometric analysis. Viable cells were those with both Annexin‐V and PI‐double negative staining. Annexin‐V‐positive and PI‐negative cells were defined as early apoptotic cells, and Annexin‐V and PI‐double‐positive cells were defined as late apoptotic cells.

[3] = test system: H460/DR cells; assay: Annexin V-FITC/PI apoptosis assay; assay type: cell-based, Human; conditions: 48 h exposure
Procedure: as §1

[4] = test system: multiple myeloma; parameters: method as in PMID 20499131, PMID 17947482, PMID 16832603, PMID 16197617; conditions: sixty patients with multiple myeloma, phase II study; ref [15], [16], [17], [18]; cited from earlier work
[5] = test system: HIF‐1; assay: HIF-1 luciferase reporter gene assay (U251-HRE / U251-PGL3); assay type: cell-based; conditions: hypoxic environments, compared to the control group
Procedure: HIF‐1 activity was assessed in U251‐HRE and U251‐PGL3 using a 96‐well format. Cells were rinsed twice with ice‐cold PBS, lysed with 200 µl of passive lysis buffer (Promega, Wisconsin, USA), and incubated at room temperature for 10 min. Lysates were centrifuged and stored at −80°C until assayed. Luciferase assays were conducted by pipetting 20 µl of cell lysate into each well of a 96‐well plate and analyzed immediately after adding the luciferase reagent (Promega) in a multi‐mode microplate reader (Centro LB960, Berthold, Germany).

[6] = test system: A549/2‐ME2 and H460/2‐ME2 cells; assay: Epigenetics Compound Library screen in HIF-1 inhibitor-resistant cells; assay type: cell-based, Human
[7] = test system: HIF‐1α; assay: Western blot of HIF-1α after EZH2 inhibitors; assay type: cell-based; conditions: compared to the control group

luciferase activity in U251 [5]	SMILES	resistance ratio (RI) of the IC50 in drug‐resistant cells compared to the IC50 in parental cells [1]	apoptotic cell population [2]	apoptotic cell population [3]	objective response in patients [4]	sensitivity of resistant cells compared to the parental cells [6]	HIF‐1α protein levels [7]
	COc1cc2c(cc1O)CC[C@@H]1[C@@H]2CC[C@]2(C)[C@@H](O)CC[C@@H]12 [2‐ME2, 2‐methoxy estradiol]	≈ 4	much lower	much lower	no objective response		
promoted luciferase activity	CCN(c1cc(-c2ccc(CN3CCOCC3)cc2)cc(C(=O)NCc2c(C)cc(C)[nH]c2=O)c1C)C1CCOCC1 [EPZ6438]					more sensitive	
	CCN(c1cc(C#CCN2CCOCC2)cc(C(=O)NCc2c(C)cc(C)[nH]c2=O)c1C)[C@H]1CC[C@H](N(C)CCOC)CC1 [EPZ011989]					more sensitive	
promoted luciferase activity	CC[C@H](C)n1cc(C)c2c(C(=O)NCc3c(C)cc(C)[nH]c3=O)cc(-c3ccc(N4CCNCC4)nc3)cc21 [GSK126]	≈ 4	much lower	much lower		more sensitive	significantly higher levels of HIF‐1α protein
